Article PMC8025302, “Structural and biophysical characterization of the tandem substrate-binding domains of the ABC importer GlnPQ” (Open Biology, 2021)
Where “and” joins values, the source holds several entries; their conditions need not be identical. Equal values may be shown once.

Tests used:
[1] = target: SBD1 within the tandem SBD1-2 (Lactococcus lactis, UniProt Q9CES5); assay: Isothermal titration calorimetry, SBD1 site of tandem SBD1-2; type: binding; details: SBD1 within tandem SBD1-2; ITC, 25°C, pH 6.0
Experimental: (§1) ITC experiments were performed as described previously. Briefly, the purified SBDs were dialysed overnight against 50 mM KPi (pH 6.0), 1 mM EDTA and 1 mM NaN3. Isothermal titration experiments were carried out using an ITC-200 (MicroCal, GE Healthcare, Buckinghamshire, UK). For these experiments, the substrate was prepared in the dialysis buffer to minimize mixing effects. All experiments were carried out at 25°C and a mixing rate of 1000 r.p.m. The concentration of SBD1 and SBD2 and associated tandem mutants varied between 20 and 100 µM during the experiment, depending on the expected KD of the protein under investigation. For titration experiments with asparagine typically the concentration of ligand in the syringe was 8–10× the concentration in the cell. […] The recorded data was approximated by a one- respectively two-site binding model and fitted using the nonlinear curve-fitting tool provided by ORIGIN 8 (Origin Lab Corp., Northhampton, MA) to describe the molar enthalpy change ΔH for protein–ligand complex formation, the stoichiometry n and the corresponding association constant KA. […] The molar entropy change ΔS was calculated from ΔG = ΔH − TΔS. […] For analysing the glutamine binding to SBD1-Δ5-SBD2, which features two binding sites, we first determined the parameters for the single site using the conditions of asparagine binding to SBD1. […]

[2] = tested on: tandem SBD1-2 wild-type protein; assay: Differential scanning calorimetry, thermostability of tandem with ligand; type: binding, Lactococcus lactis; details: DSC; unliganded 59°C
Experimental: Furthermore, we verified the stability of the proteins using differential scanning calorimetry (DSC) by analysing thermostability and potential differences in folding of wild-type SBD1-2 and linker mutants (figure 6b,c; electronic supplementary material, table S7). In the unliganded state, the melting temperature of both single SBDs was 59°C [41], which is the same for all tandem SBD1-2 mutants. The addition of either asparagine or glutamine increased the protein stability of the tandem resulting in a higher melting temperature of approximately 62°C for SBD1 and greater than or equal to 69°C for SBD2. […] We assign the peak shifts to a specific SBD by comparing the melting temperatures of the tandem SBD1-2 to that of the single SBDs. […] We find that linker deletions of 5 and 8 amino acids increase the stability of the proteins by 2–3°C. Maximal stabilization of SBD2 in SBD1-2 tandems is observed in the presence of glutamine, […] (figure 6c).
To determine the proteins thermal stability, DSC experiments were performed as described previously. Briefly, the purified SBDs were dialysed overnight against the DSC working buffer, i.e. 50 mM KPi (pH 7.0), 150 mM KCl, 1 mM EDTA and 1 mM NaN3. DSC experiments with working buffer solutions containing 4 µM of an SBD-mutant and 5 mM substrate were conducted on a VP-DSC Calorimeter (MicroCal, GE Healthcare, Buckinghamshire). The melting temperature Tm was determined by ORIGIN 8 (Origin Lab Corp, Northampton, MA).

[3] = target: SBD1 of GlnPQ (isolated domain); set-up: method as in PMID 23994008; details: ITC; cited from earlier work
[4] = target: SBD2 within the tandem SBD1-2 (Lactococcus lactis, UniProt Q9CES5); assay: Isothermal titration calorimetry, SBD2 site of tandem SBD1-2; type: binding; details: ITC
Experimental: as §1

[5] = target: SBD2 of GlnPQ (isolated domain); set-up: method as in PMID 23994008; details: ITC; cited from earlier work

Sequence of SBD1 within the tandem SBD1-2 (Q9CES5 entry or part of it): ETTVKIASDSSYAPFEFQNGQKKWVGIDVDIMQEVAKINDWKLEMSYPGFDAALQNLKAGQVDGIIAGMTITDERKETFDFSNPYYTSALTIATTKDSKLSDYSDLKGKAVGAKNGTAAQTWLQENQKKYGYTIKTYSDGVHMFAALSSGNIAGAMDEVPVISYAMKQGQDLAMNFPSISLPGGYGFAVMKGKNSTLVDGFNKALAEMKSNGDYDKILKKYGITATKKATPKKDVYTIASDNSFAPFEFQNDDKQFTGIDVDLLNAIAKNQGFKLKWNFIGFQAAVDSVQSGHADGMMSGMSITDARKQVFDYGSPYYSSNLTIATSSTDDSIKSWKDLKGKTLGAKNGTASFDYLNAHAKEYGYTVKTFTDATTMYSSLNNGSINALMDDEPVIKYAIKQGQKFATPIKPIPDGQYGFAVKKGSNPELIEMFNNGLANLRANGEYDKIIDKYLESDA
Sequence of SBD2 within the tandem SBD1-2 (Q9CES5 entry or part of it): as above

Structure (SMILES) | Kd [1] | melting temperature of SBD1 in the tandem after addition of ligand [2] | melting temperature of SBD2 in the tandem after addition of ligand [2] | Kd [3] | Kd ([4]; SBD2 within tandem SBD1-2, SBD1 blocked with 1 mM asparagine) | Kd ([4]; SBD2 within tandem SBD1-2, no asparagine, 25°C, pH 6.0) | Kd [5]
NC(=O)C[C@H](N)C(=O)O [asparagine] | 400 ± 100 nM | approximately 62 °C | greater than or equal to 69 °C | 200 nM |  |  | 
NC(=O)CC[C@H](N)C(=O)O [glutamine] | 180000 nM and ~100000 nM | approximately 62 °C | greater than or equal to 69 °C | 90000 nM | 900 nM | 600 ± 200 nM | ~900 nM
